Data as given in PubChem BioAssay (NCI).
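Each compound was tested at five concentrations against cells in 96-well plates for 48 hours. TGI denotes the concentration required for complete inhibition of growth.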

Key:
Test in all cases: DTP human tumour cell line panel, 48 h
786-0 renal = tested on: 786-0 renal
A498 renal = tested on: A498 renal
A549 NSCLC = tested on: A549 NSCLC
ACHN renal = tested on: ACHN renal
BT-549 breast = tested on: BT-549 breast
CAKI-1 renal = tested on: CAKI-1 renal
CCRF-CEM leukemia = tested on: CCRF-CEM leukemia
COLO 205 colon = tested on: COLO 205 colon
DU-145 prostate = tested on: DU-145 prostate
EKVX NSCLC = tested on: EKVX NSCLC
HCC-2998 colon = tested on: HCC-2998 colon
HCT-116 colon = tested on: HCT-116 colon
HCT-15 colon = tested on: HCT-15 colon
HL-60(TB) leukemia = tested on: HL-60(TB) leukemia
HOP-62 NSCLC = tested on: HOP-62 NSCLC
HS 578T breast = tested on: HS 578T breast
HT29 colon = tested on: HT29 colon
IGROV1 ovarian = tested on: IGROV1 ovarian
K-562 leukemia = tested on: K-562 leukemia
KM12 colon = tested on: KM12 colon
LOX IMVI melanoma = tested on: LOX IMVI melanoma
M14 melanoma = tested on: M14 melanoma
MALME-3M melanoma = tested on: MALME-3M melanoma
MCF7 breast = tested on: MCF7 breast
MDA-MB-231 breast = tested on: MDA-MB-231 breast
MDA-MB-435 = tested on: MDA-MB-435
MDA-N = tested on: MDA-N
MOLT-4 leukemia = tested on: MOLT-4 leukemia
NCI-H226 lung = tested on: NCI-H226 lung
NCI-H23 lung = tested on: NCI-H23 lung
NCI-H460 lung = tested on: NCI-H460 lung
NCI-H522 lung = tested on: NCI-H522 lung
OVCAR-8 ovarian = tested on: OVCAR-8 ovarian
PC-3 prostate = tested on: PC-3 prostate
RPMI-8226 leukemia = tested on: RPMI-8226 leukemia
SF-268 CNS = tested on: SF-268 CNS
SF-295 CNS = tested on: SF-295 CNS
SF-539 CNS = tested on: SF-539 CNS
SK-MEL-28 melanoma = tested on: SK-MEL-28 melanoma
SK-MEL-5 melanoma = tested on: SK-MEL-5 melanoma
SK-OV-3 ovarian = tested on: SK-OV-3 ovarian
SN12C renal = tested on: SN12C renal
SNB-19 CNS = tested on: SNB-19 CNS
SR leukemia = tested on: SR leukemia
SW-620 colon = tested on: SW-620 colon
T-47D breast = tested on: T-47D breast
TK-10 renal = tested on: TK-10 renal
UACC-257 melanoma = tested on: UACC-257 melanoma
UACC-62 melanoma = tested on: UACC-62 melanoma
UO-31 renal = tested on: UO-31 renal
NCI/ADR-RES ovarian = tested on: NCI/ADR-RES ovarian
OVCAR-3 ovarian = tested on: OVCAR-3 ovarian
OVCAR-4 ovarian = tested on: OVCAR-4 ovarian
OVCAR-5 ovarian = tested on: OVCAR-5 ovarian
SK-MEL-2 melanoma = tested on: SK-MEL-2 melanoma
U251 CNS = tested on: U251 CNS

## COc1cc2c(c(OC)c1)C(C)=NC(C)C2 (configuration not stated)
786-0 renal
  TGI: > 100 µM
A498 renal
  TGI: > 100 µM
A549 NSCLC
  TGI: > 100 µM
ACHN renal
  TGI: > 100 µM
BT-549 breast
  TGI: > 100 µM
CAKI-1 renal
  TGI: > 100 µM
CCRF-CEM leukemia
  TGI: > 100 µM
COLO 205 colon
  TGI: > 100 µM
DU-145 prostate
  TGI: > 100 µM
EKVX NSCLC
  TGI: > 100 µM
HCC-2998 colon
  TGI: > 100 µM
HCT-116 colon
  TGI: > 100 µM
HCT-15 colon
  TGI: > 100 µM
HL-60(TB) leukemia
  TGI: > 100 µM
HOP-62 NSCLC
  TGI: > 100 µM
HS 578T breast
  TGI: > 100 µM
HT29 colon
  TGI: > 100 µM
IGROV1 ovarian
  TGI: > 100 µM
K-562 leukemia
  TGI: > 100 µM
KM12 colon
  TGI: > 100 µM
LOX IMVI melanoma
  TGI: > 100 µM
M14 melanoma
  TGI: > 100 µM
MALME-3M melanoma
  TGI: > 100 µM
MCF7 breast
  TGI: > 100 µM
MDA-MB-231 breast
  TGI: > 100 µM
MDA-MB-435
  TGI: > 100 µM
MDA-N
  TGI: > 100 µM
MOLT-4 leukemia
  TGI: > 100 µM
NCI-H226 lung
  TGI: > 100 µM
NCI-H23 lung
  TGI: > 100 µM
NCI-H460 lung
  TGI: > 100 µM
NCI-H522 lung
  TGI: > 100 µM
OVCAR-8 ovarian
  TGI: > 100 µM
PC-3 prostate
  TGI: > 100 µM
RPMI-8226 leukemia
  TGI: > 100 µM
SF-268 CNS
  TGI: > 100 µM
SF-295 CNS
  TGI: > 100 µM
SF-539 CNS
  TGI: > 100 µM
SK-MEL-28 melanoma
  TGI: > 100 µM
SK-MEL-5 melanoma
  TGI: > 100 µM
SK-OV-3 ovarian
  TGI: > 100 µM
SN12C renal
  TGI: > 100 µM
SNB-19 CNS
  TGI: > 100 µM
SR leukemia
  TGI: > 100 µM
SW-620 colon
  TGI: > 100 µM
T-47D breast
  TGI: > 100 µM
TK-10 renal
  TGI: > 100 µM
UACC-257 melanoma
  TGI: > 100 µM
UACC-62 melanoma
  TGI: > 100 µM
UO-31 renal
  TGI: > 100 µM

## O=C(Nc1ccc(Cl)cc1)Oc1ccc(C(=S)Nc2ccc(Br)cc2)cc1
786-0 renal
  TGI: 48.6 µM
A498 renal
  TGI: 54.9 µM
A549 NSCLC
  TGI: > 100 µM
ACHN renal
  TGI: > 100 µM
BT-549 breast
  TGI: 54.1 µM
CAKI-1 renal
  TGI: 35.8 µM
CCRF-CEM leukemia
  TGI: 20.9 µM
COLO 205 colon
  TGI: 23.6 µM
DU-145 prostate
  TGI: > 100 µM
EKVX NSCLC
  TGI: 19.6 µM
HCC-2998 colon
  TGI: 33.6 µM
HCT-116 colon
  TGI: 54.4 µM
HCT-15 colon
  TGI: 35.7 µM
HL-60(TB) leukemia
  TGI: 18.1 µM
HOP-62 NSCLC
  TGI: > 100 µM
HS 578T breast
  TGI: > 100 µM
HT29 colon
  TGI: 18.1 µM
IGROV1 ovarian
  TGI: 25 µM
K-562 leukemia
  TGI: 57.2 µM
KM12 colon
  TGI: 25.5 µM
LOX IMVI melanoma
  TGI: 9.32 µM
M14 melanoma
  TGI: 36 µM
MALME-3M melanoma
  TGI: 89.2 µM
MCF7 breast
  TGI: 70.2 µM
MDA-MB-435
  TGI: 38.6 µM
MDA-N
  TGI: 67.2 µM
MOLT-4 leukemia
  TGI: 46.2 µM
NCI-H23 lung
  TGI: 63.9 µM
NCI-H460 lung
  TGI: > 100 µM
NCI-H522 lung
  TGI: 37.2 µM
NCI/ADR-RES ovarian
  TGI: 61.4 µM
OVCAR-3 ovarian
  TGI: 54.5 µM
OVCAR-4 ovarian
  TGI: 75.8 µM
OVCAR-5 ovarian
  TGI: 38.4 µM
OVCAR-8 ovarian
  TGI: 22.7 µM
PC-3 prostate
  TGI: > 100 µM
RPMI-8226 leukemia
  TGI: > 100 µM
SF-268 CNS
  TGI: > 100 µM
SF-295 CNS
  TGI: > 100 µM
SF-539 CNS
  TGI: 39.7 µM
SK-MEL-2 melanoma
  TGI: 27.7 µM
SK-MEL-28 melanoma
  TGI: 48.4 µM
SK-MEL-5 melanoma
  TGI: 23 µM
SK-OV-3 ovarian
  TGI: > 100 µM
SNB-19 CNS
  TGI: > 100 µM
SR leukemia
  TGI: 36.7 µM
SW-620 colon
  TGI: > 100 µM
T-47D breast
  TGI: 88.9 µM
U251 CNS
  TGI: 75.5 µM
UACC-257 melanoma
  TGI: > 100 µM
UACC-62 melanoma
  TGI: 12.2 µM
UO-31 renal
  TGI: > 100 µM
